Measured values from PubChem BioAssay (NCI).
Where “and” joins values, the source holds several entries; their conditions need not be identical. Equal entries are not always repeated.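 Briefly, cells in 96-well plates were exposed to five compound concentrations for 48 h, and endpoints were estimated by linear interpolation. GI50 marks 50% less growth. Definition used: TGI = concentration required for complete inhibition of growth.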

Columns and labels:
Assay in all cases: NCI-60 cell line screen, 48 h
RPMI-8226 leukemia = system: RPMI-8226 leukemia
SNB-75 CNS = system: SNB-75 CNS
DLD-1 colon = system: DLD-1 colon
M19-MEL melanoma = system: M19-MEL melanoma
SK-MEL-28 melanoma = system: SK-MEL-28 melanoma
MALME-3M melanoma = system: MALME-3M melanoma
UO-31 renal = system: UO-31 renal
A549 NSCLC = system: A549 NSCLC
OVCAR-8 ovarian = system: OVCAR-8 ovarian
SK-MEL-5 melanoma = system: SK-MEL-5 melanoma
OVCAR-5 ovarian = system: OVCAR-5 ovarian

| Compound | TGI (RPMI-8226 leukemia) [µM] | TGI (SNB-75 CNS) [µM] | TGI (DLD-1 colon) | TGI (M19-MEL melanoma) | TGI (SK-MEL-28 melanoma) [µM] | TGI (MALME-3M melanoma) [µM] | TGI (UO-31 renal) [µM] | TGI (A549 NSCLC) [µM] | TGI (OVCAR-8 ovarian) | TGI (SK-MEL-5 melanoma) [µM] | TGI (OVCAR-5 ovarian) | GI50 (SNB-75 CNS) |
| --- | --- | --- | --- | --- | --- | --- | --- | --- | --- | --- | --- | --- |
| CC12CCC3C(CCC4CC(OC(=O)Cc5ccc(N(CCCl)CCCl)cc5)CCC43C)C1CCC(=O)N2 (stereo not drawn) | 35.3 | 28.9 | 33 µM | 33.5 µM | 30.9 | 32.9 | 33.9 | 29 | 29.2 µM | 33.3 | – | – |
| CC(C(=O)N1C(=O)N(C(=O)C(C)C(O)c2ccccc2)C2CCCCC21)C(O)c1ccccc1 (stereo not drawn) | > 100 | – | – | > 100 µM | > 100 | > 100 | > 100 | > 100 | > 100 µM | > 100 | > 100 µM | – |
| CSC(=Nc1ccccc1)N(c1ccccc1)c1nc(=[N+](C)C)ss1 | 3.14 | 16.3 | – | 4.98 µM | 2.83 | 22.6 | 28.3 | 33.7 | 6.19 µM | 5.15 | 28.6 µM | – |
| COc1c(O)c2c3c(c(C)cc(O)c3c1O)C(=O)C(O)(C(C)(C)C(C)=O)C2=O (stereo not drawn) | > 100 | > 100 | > 100 µM | 28.1 µM and 35.3 µM | > 100 | > 100 | > 100 | > 100 | > 100 µM | > 100 | > 100 µM | – |
| COc1ccc(CC2c3c(cc(OC)c(OC)c3OC)CCN2C)cc1OC (stereo not drawn) | > 100 | > 100 | > 100 µM | – | > 100 | > 100 | > 100 | > 100 | > 100 µM | > 100 | > 100 µM | – |
| CC(O)CCCOC(c1ccccc1)(c1ccccc1)c1ccccc1 (stereo not drawn) | > 55.6 | 25.8 | 31.5 µM | 31 µM | 30.1 | 27.8 | 26.7 | 27.3 | 28.2 µM | 16.6 | 30.5 µM | – |
| CC(=O)OCC1OC(n2cc(I)c(=O)[nH]c2=O)C(OC(C)=O)C(OC(C)=O)C1OC(C)=O (stereo not drawn) | > 100 | > 100 | > 100 µM | > 100 µM | > 100 | > 100 | > 100 | > 100 | > 100 µM | > 100 | > 100 µM | – |
| CC1=NN(C(=O)CC(=O)Nc2ccccc2F)C(=O)C1N=Nc1ccccc1[N+](=O)[O-] (stereo not drawn) | > 100 | > 100 | > 100 µM | 33.6 µM | > 100 | > 100 | > 100 | > 100 | > 100 µM | 33.5 | > 100 µM | – |
| CCC1=CC2CN3Cn4c(c(COCc5c6n(c7ccccc57)CN5CC7C=C(CC)C5C6(C(=O)OC)C7)c5ccccc54)C(C(=O)OC)(C2)C13 | > 100 | – | > 100 µM | > 100 µM | > 100 | > 100 | > 100 | > 100 | > 100 µM | > 100 | – | – |
| CC(=O)O/N=C/c1c2ccccc2cc2ccccc12 | > 100 | 51.5 | – | – | > 100 | > 100 | > 100 | > 100 | 50.3 µM | > 100 | > 100 µM | – |
| CCCCNC(=S)N/N=C/c1cccc(C)n1 | > 100 | > 100 | – | – | > 100 | > 100 | 78.5 | > 100 | > 100 µM | > 100 | > 100 µM | – |
| C/C1=C\CC[C@@]2(C)O[C@@H]2C[C@@H](C2(C)CO2)CC/C(C)=C/CC1 (stereo partly drawn) | > 100 | 93.7 | – | – | 57.6 | 32.5 | 55.9 | 36.5 | 39.6 µM | 47.1 | 50 µM | – |
| N#CC1=C(c2ccccc2)NNC(c2ccc(Cl)cc2)CC1=O (stereo not drawn) | > 100 | 41.7 | > 100 µM | – | > 100 | > 100 | – | > 100 | – | 68.2 | > 100 µM | – |
| O=C(CN(c1ccccc1)c1ccccc1)N1c2ccccc2C2C=CC=CC21 (stereo not drawn) | > 28.1 | 52.3 | > 57.5 µM | > 57.4 µM | > 56 | 47.1 | > 49.9 | > 54.9 | 53.5 µM | 29.9 | > 57.8 µM | – |
| CC1CN=C(N(C(=O)Nc2ccc(F)c(Cl)c2)c2ccccc2)S1 (stereo not drawn) | > 100 | 63.7 | – | – | 33.5 | 78.5 | 98.1 | 92.1 | 65.7 µM | 30 | 76.3 µM | – |
| CSc1c(C#N)c(N)n(-c2ccc(C)cc2)c(=O)c1C#N | > 100 | > 100 | – | – | > 100 | > 100 | > 100 | > 100 | > 100 µM | > 100 | > 100 µM | – |
| CCN(CC)CCCNC(=O)c1ccc([N+](=O)[O-])cc1O | – | > 100 | > 100 µM | – | > 100 | > 100 | > 100 | > 100 | > 100 µM | > 100 | > 100 µM | – |
| Cc1ccc(OCCn2cc(Nc3ccccc3)c(=O)n(CCOc3ccc(C)cc3)c2=O)cc1 | > 100 | > 100 | – | – | > 100 | > 100 | > 100 | > 100 | > 100 µM | > 100 | > 100 µM | – |

| Compound | TGI (RPMI-8226 leukemia) [µM] | TGI (SNB-75 CNS) [µM] | TGI (DLD-1 colon) | TGI (M19-MEL melanoma) | TGI (SK-MEL-28 melanoma) [µM] | TGI (MALME-3M melanoma) [µM] | TGI (UO-31 renal) [µM] | TGI (A549 NSCLC) [µM] | TGI (OVCAR-8 ovarian) | TGI (SK-MEL-5 melanoma) [µM] | TGI (OVCAR-5 ovarian) | GI50 (SNB-75 CNS) |
| --- | --- | --- | --- | --- | --- | --- | --- | --- | --- | --- | --- | --- |
| Nc1nc(N)c(N=O)c(Nc2ccc(Br)cc2)n1 | – | 40.3 | > 100 µM | > 100 µM | 68.6 | 44.6 | – | > 100 | > 100 µM | – | > 100 µM | – |
| COC(=O)CCc1cc(OC)c2c(c1)[C@H](C(=O)OC)[C@@H](c1ccc(O)c(OC)c1)O2 | 55.5 | > 100 | – | – | > 100 | > 100 | > 100 | > 100 | > 100 µM | > 100 | > 100 µM | – |
| O=C(Oc1cc(=O)c(OC(=O)c2ccccc2)co1)c1ccccc1 | > 100 | > 100 | – | – | > 100 | > 100 | > 100 | > 100 | > 100 µM | > 100 | > 100 µM | – |
| COc1cc2nc(-c3cccs3)oc(=O)c2cc1OC | > 100 | > 100 | – | – | > 100 | > 100 | > 100 | > 100 | > 100 µM | > 100 | > 100 µM | – |
| CNc1ncnc2c1cnn2COCC(O)CO (stereo not drawn) | > 100 | > 100 | – | – | > 100 | > 100 | > 100 | > 100 | > 100 µM | > 100 | > 100 µM | – |
| O=c1ccn(C2OC(CO)C(P(=O)(O)O)C2O)c(=O)[nH]1 (stereo not drawn) | > 100 | > 100 | – | – | > 100 | > 100 | > 100 | > 100 | > 100 µM | > 100 | > 100 µM | – |
| COc1cc2c(cc1OC)[C@H]1CN3CCC[C@H]3C=C1c1ccc(OC)c(O)c1-2 | 0.0012 | – | 0.0109 µM and 0.0123 µM | < 0.0001 µM | – | 0.00179 | 0.00324 | – | 0.0015 µM and 0.0123 µM | 0.00133 | 0.00431 µM and 0.0108 µM | – |
| O=C1NCC(NC(=O)C(F)(F)F)c2c(Br)sc(Br)c21 (stereo not drawn) | > 100 | > 100 | – | – | > 100 | > 100 | > 100 | > 100 | > 100 µM | > 100 | > 100 µM | – |
| COc1cc(-c2cc(=O)c3cc4c(=O)cc(-c5cc(OC)c(OC)c(OC)c5)oc4cc3o2)cc(OC)c1OC | > 100 | 32.3 | – | – | > 100 | > 100 | > 100 | > 100 | > 100 µM | > 100 | > 100 µM | – |
| O=C1NCCS(=O)(=O)N[C@@H](CC2=CC=CCC2)C(=O)N2CCCC12 (stereo partly drawn) | > 100 | > 100 | > 100 µM | > 100 µM | > 100 | > 100 | > 100 | > 100 | > 100 µM | > 100 | > 100 µM | – |
| O=C1Sc2ccccc2C(=O)N2CSCC12 (stereo not drawn) | > 100 | > 100 | > 100 µM | > 100 µM | > 100 | > 100 | > 100 | > 100 | > 100 µM | > 100 | – | – |
| C[C@@H](Cl)[C@H]1CCCN(Cc2ccc(Br)cc2)C1 | > 12.5 | > 12.5 | – | – | > 12.5 | > 12.5 | > 12.5 | > 12.5 | > 12.5 µM | > 12.5 | > 12.5 µM | – |
| CC(=O)c1cccn1/C=C(\OC(=O)OC(C)(C)C)c1ccc[nH]1 | > 100 | 67.2 | – | – | > 100 | > 100 | > 100 | > 100 | > 100 µM | > 100 | > 100 µM | – |
| C=Cc1ccc(C)[n+](C[Si](C)(C)O[Si](C)(C)C[n+]2cc(C=C)ccc2C)c1 | > 100 | > 100 | > 100 µM | > 100 µM | > 100 | > 100 | > 100 | > 100 | > 100 µM | > 100 | > 100 µM | – |
| O=c1[nH]cnc(NC2C=C(CO)C(O)C2O)c1[N+](=O)[O-] (stereo not drawn) | > 71.3 | > 100 | > 100 µM | > 100 µM | > 100 | > 100 | > 100 | > 100 | > 100 µM | > 100 | > 100 µM | – |
| COc1nc2ncc([C@@H](OC(C)=O)[C@@H](COC(C)=O)OC(C)=O)nc2c(=O)[nH]1 | > 100 | > 100 | – | – | > 100 | > 100 | > 100 | > 100 | > 100 µM | > 100 | > 100 µM | > 100 µM and 11.3 µM |
| COC(=O)c1cc2c(cc1CC1Cc3cc4c(cc3C1)CCC4)CCC2 | 61.4 | > 100 | – | – | 80.4 | > 100 | > 100 | > 100 | > 100 µM | > 100 | > 100 µM | – |
